According to publication PMC9939733 (The Journal of Biological Chemistry, 2023):
Where a chain is given by its changes, count along the chain named. Values joined by “and” are separate entries in the source; they are usually repeats but may differ in a detail not shown here. Identical values can stand only once.

Assays:
Assay type in all cases: biochemical
R132H IDH1 = R132H IDH1 (Homo sapiens, UniProt O75874, R132H); experiment: Absorbance assay, variant activity in the presence of equimolar 2OG (inhibition screen); parameters: made in house; host or cells: Escherichia coli BL21(DE3) pLyS; settings: […] 2OG and […] test compound, 0.03 μM R132H IDH1, 50 μM NADPH
R132H IDH1, sequence (O75874 whole entry R132H): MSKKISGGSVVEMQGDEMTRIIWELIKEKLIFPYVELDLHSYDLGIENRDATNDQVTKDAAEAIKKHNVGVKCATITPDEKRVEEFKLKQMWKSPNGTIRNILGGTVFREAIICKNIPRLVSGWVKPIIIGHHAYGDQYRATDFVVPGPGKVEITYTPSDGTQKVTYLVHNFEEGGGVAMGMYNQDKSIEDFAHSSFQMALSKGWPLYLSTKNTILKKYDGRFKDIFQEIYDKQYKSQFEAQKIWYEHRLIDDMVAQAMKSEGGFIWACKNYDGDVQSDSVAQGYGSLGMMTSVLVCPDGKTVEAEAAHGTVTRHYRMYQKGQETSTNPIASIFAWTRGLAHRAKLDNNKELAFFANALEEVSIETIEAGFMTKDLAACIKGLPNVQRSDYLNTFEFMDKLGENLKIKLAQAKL
In short: (§1)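 Values come from four technical replicates per reaction; compound transfer used a simultaneous pipettor and reagent dispensing triggered the start.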

R132C/S280F IDH1 = target: T1, R132C/S280F IDH1 (Homo sapiens, UniProt O75874, R132C/S280F); experiment: Steady-state kinetics, NADPH turnover assay
T1 construct: made in house
T1 sequence (O75874 whole entry R132C/S280F): as the sequence (O75874 whole entry R132H) above, with H132C, S280F counted along it
Procedure: independent runs, each composed of technical duplicates (n = 2; mean ± SD); c) R132C/S280F IDH1 assays
monitoring NADPH turnover were performed as reported (3). […]

R140Q IDH2 [1] = target: T2, R140Q IDH2 (Homo sapiens, UniProt P48735, R140Q); experiment: Steady-state kinetics, absorbance assay; settings: 0.03 μM enzyme, 50 μM NADPH, 20 mM MgCl2, pH 8.0
T2 construct: made in house; host or cells: Sf21 insect cells (cell pellets prepared at Evotec)
T2 sequence (P48735 40-452 R140Q): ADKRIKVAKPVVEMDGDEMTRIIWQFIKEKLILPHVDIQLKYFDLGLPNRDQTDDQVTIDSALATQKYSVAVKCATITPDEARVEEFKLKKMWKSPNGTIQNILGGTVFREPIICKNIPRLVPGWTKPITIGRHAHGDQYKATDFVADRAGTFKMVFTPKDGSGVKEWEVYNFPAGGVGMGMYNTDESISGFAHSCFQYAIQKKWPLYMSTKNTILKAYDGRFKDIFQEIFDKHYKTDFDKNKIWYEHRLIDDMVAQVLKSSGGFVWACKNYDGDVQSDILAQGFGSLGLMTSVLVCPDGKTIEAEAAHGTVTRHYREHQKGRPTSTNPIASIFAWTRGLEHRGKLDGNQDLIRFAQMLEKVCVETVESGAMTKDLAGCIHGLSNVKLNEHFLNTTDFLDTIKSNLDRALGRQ
Procedure: (§2) Compounds were dispensed using a CyBio SDW-CW CyBi-Well Simultaneous Pipettor and assay started using a ThermoFisher Multidrop Combi reagent dispenser.
(§3) Reactions were performed as technical duplicates, and all assays were carried out in two independent duplicates.

R172K IDH2 [2] = target: T3, R172K IDH2 (Homo sapiens, UniProt P48735, R172K); experiment: Steady-state kinetics, absorbance assay; settings: 0.03 μM enzyme, 50 μM NADPH, 20 mM MgCl2, pH 8.0
T3 construct: made in house; host or cells: Sf21 insect cells (cell pellets prepared at Evotec)
T3 sequence (P48735 40-452 R172K): T2 sequence (P48735 40-452 R140Q) with Q101R, R133K
Procedure: as §2, §3

WT IDH1 = target: T4, WT IDH1 (Homo sapiens, UniProt O75874); experiment: Absorbance assay, WT activity in the presence of equimolar DL-isocitrate (inhibition); settings: […] isocitrate and […] test compound, 75 μM NADP+, 2.0 nM WT IDH1
T4 construct: made in house; host or cells: Escherichia coli BL21(DE3) pLyS
T4 sequence (O75874 whole entry): as the sequence (O75874 whole entry R132H) above, with H132R counted along it
In short: as §1

WT IDH2 = target: T5, WT IDH2 (Homo sapiens, UniProt P48735); experiment: as above; settings: […] isocitrate and […] test compound, 75 μM NADP+, 2.0 nM WT IDH2
T5 construct: made in house; host or cells: Sf21 insect cells (cell pellets prepared at Evotec)
T5 sequence (P48735 40-452): T2 sequence (P48735 40-452 R140Q) with Q101R
In short: as §1

R140Q IDH2 [3] = target: T2, R140Q IDH2; experiment: Absorbance assay, variant activity in the presence of equimolar 2OG (inhibition screen); settings: 6.0 mM 2OG and 6.0 mM test compound, 0.03 μM R140Q IDH2, 50 μM NADPH
In short: as §1

R172K IDH2 [4] = target: T3, R172K IDH2; experiment: as above; settings: 1.0 mM 2OG and 1.0 mM test compound, 0.03 μM R172K IDH2, 50 μM NADPH
In short: as §1

Question: Which “activity [%] (%-substrate conversion after 20 min incubation)” value (from here on “activity [%]”) (R132H IDH1) does the source give for `O=C(O)CCC(=O)C(=O)O` [2OG, 2-oxoglutarate, reference compound] here?
Answer: The value was 100%.

Question: What about the Kmapp (R132C/S280F IDH1) of the same compound?
Answer: The Kmapp was 0.04 ± 0.01 mM.

Question: And the Kmapp (R140Q IDH2 [1])?
Answer: Its Kmapp is 5.1 ± 1.2 mM and ~5.1 mM.

Question: What about the kcatapp (R140Q IDH2 [1]) of the same compound?
Answer: The kcatapp was 0.49 ± 0.04 s⁻¹ and 0.5 to 0.7 s⁻¹.

Question: And the Kmapp (R172K IDH2 [2])?
Answer: The Kmapp was 0.35 ± 0.04 mM.

Question: What about the kcatapp (R172K IDH2 [2]) of the same compound?
Answer: Its kcatapp is 0.72 ± 0.04 s⁻¹ and 0.5 to 0.7 s⁻¹.

Question: And the “activity [%]” value (WT IDH1)?
Answer: Its value is 93 ± 1%.

Question: And the “activity [%]” value (WT IDH2)?
Answer: Its value is 91 ± 1%.

Question: And the “activity [%]” value (R140Q IDH2 [3])?
Answer: The value was 100%.

Question: And the “activity [%]” value (R172K IDH2 [4])?
Answer: Its value is 100%.
